The results in this text go back to patent US10392367B2, “IRE1 small molecule inhibitors” (QUENTIS THERAPEUTICS, INC., priority 2017, dated 2019).

Bounds are passed on as bounds.

By IC50 is commonly meant the concentration needed to halve the response being measured.

Sequence of IRE1a (O75460 19-977): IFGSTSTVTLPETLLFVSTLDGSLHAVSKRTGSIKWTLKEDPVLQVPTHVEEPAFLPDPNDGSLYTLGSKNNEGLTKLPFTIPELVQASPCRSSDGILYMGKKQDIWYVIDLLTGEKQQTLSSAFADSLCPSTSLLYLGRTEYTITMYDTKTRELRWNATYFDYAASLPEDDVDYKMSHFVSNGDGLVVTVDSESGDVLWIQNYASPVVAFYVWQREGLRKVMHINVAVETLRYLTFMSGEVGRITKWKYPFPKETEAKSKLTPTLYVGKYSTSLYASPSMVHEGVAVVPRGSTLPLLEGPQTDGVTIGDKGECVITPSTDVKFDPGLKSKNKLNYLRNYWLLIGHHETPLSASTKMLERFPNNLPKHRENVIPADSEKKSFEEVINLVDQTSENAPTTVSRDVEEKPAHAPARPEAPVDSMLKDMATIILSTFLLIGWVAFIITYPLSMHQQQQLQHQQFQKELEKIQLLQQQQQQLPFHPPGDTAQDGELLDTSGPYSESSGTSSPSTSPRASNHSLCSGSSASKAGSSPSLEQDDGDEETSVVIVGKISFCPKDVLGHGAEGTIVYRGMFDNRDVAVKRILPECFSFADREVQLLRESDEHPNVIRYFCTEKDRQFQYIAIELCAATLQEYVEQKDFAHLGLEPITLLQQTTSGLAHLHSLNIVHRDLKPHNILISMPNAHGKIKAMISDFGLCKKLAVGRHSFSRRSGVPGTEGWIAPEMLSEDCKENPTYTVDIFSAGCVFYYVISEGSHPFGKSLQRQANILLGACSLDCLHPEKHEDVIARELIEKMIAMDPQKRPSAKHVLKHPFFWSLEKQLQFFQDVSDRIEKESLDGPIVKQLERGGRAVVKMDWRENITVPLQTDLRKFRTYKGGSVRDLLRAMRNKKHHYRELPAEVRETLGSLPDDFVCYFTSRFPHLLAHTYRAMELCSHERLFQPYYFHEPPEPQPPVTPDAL

The assay has as its target IRE1a (Homo sapiens, UniProt O75460). Put plainly: In vitro FRET assay (XBP1 RNA probe cleavage by IRE1a). Conditions: SignalChem IRE1a protein 2 nM. The format is biochemical. Set-up: purchased SignalChem. Here is the method: In vitro FRET assay was performed to evaluate the ability of select compounds to inhibit IRE1, the results of which are summarized in Table 3. To perform the in vitro FRET assay, 1× complete assay buffer (CAB; […] DTT, 50 mM sodium citrate pH 7.15, 1 mM magnesium acetate, 0.02% tween 20) was used to dilute SignalChem IRE1a protein to a final concentration of 2 nM. Selected compounds were serially diluted with DMSO in a non-binding black 384-well plate for a total of 15 ul in each well. 2 ul of the serially diluted compound or DMSO control were then added to new wells containing 98 ul of 1×CAB, for a total volume of 100 ul, 10 ul of which were then transferred to wells of a new plate. 5 ul of the diluted IRE1a was then added to each well. 5 ul of a […] XBP1 RNA probe was then added to each well. Fluorescence was then read over 30 minutes in kinetic mode (485/515 nm).
Two RNA probes were used, XBP1 wildtype (SEQ ID NO: 2) which is able to be spliced by active IRE1a or XBP1 mutant (SEQ ID NO: 3) which is unable to be spliced. Each probe contained a 5′ 6-FAM modification and a 3′ IOWA Black FQ modification.
For the compound `CCc1cc(-c2cc(NC(=O)Cc3cccc(C(F)(F)F)c3)nn2C)cc2cnc(N[C@H]3CC[C@H](O)CC3)nc12` [Compound 3, N-(5-(8-ethyl-2-(((1r,4r)-4-hydroxycyclohexyl)amino)quinazolin-6-yl)-1-methyl-1H-pyrazol-3-yl)-2-(3-(trifluoromethyl)phenyl)acetamide], the IC50 was greater than 100 nM.
The figure for `CCc1cc(-c2cc(NC(=O)[C@@H](N)c3ccccc3)nn2C)cc2cnc(N[C@H]3CC[C@H](N)CC3)nc12` [Compound 24, (S)-2-amino-N-(5-(2-(((1r,4r)-4-aminocyclohexyl)amino)-8-ethylquinazolin-6-yl)-1-methyl-1H-pyrazol-3-yl)-2-phenylacetamide] is greater than 100 nM.
The compound `Cc1c(-c2cc(NC(=O)Cc3cc(C(F)(F)F)ccc3C(F)(F)F)nn2C)ccc2nc(N[C@H]3CC[C@H](N)CC3)ncc12` [Compound 45, N-(5-(2-(((1r,4r)-4-aminocyclohexyl)amino)-5-methylquinazolin-6-yl)-1-methyl-1H-pyrazol-3-yl)-2-(2,5-bis(trifluoromethyl)phenyl)acetamide] showed an IC50 greater than 100 nM.
The figure for `CCc1cc(-c2cc(NC(=O)Cc3cccc(C#N)c3)nn2C)cc2cnc(N[C@H]3CC[C@H](N)CC3)nc12` [Compound 17, N-(5-(2-(((1r,4r)-4-aminocyclohexyl)amino)-8-ethylquinazolin-6-yl)-1-methyl-1H-pyrazol-3-yl)-2-(3-cyanophenyl)acetamide] is 5 to 50 nM; for `CCc1cc(-c2cc(NC(=O)[C@H](N)c3ccccc3)nn2C)cc2cnc(N[C@H]3CC[C@H](N)CC3)nc12` [Compound 22, (R)-2-amino-N-(5-(2-(((1r,4r)-4-aminocyclohexyl)amino)-8-ethylquinazolin-6-yl)-1-methyl-1H-pyrazol-3-yl)-2-phenylacetamide] it is greater than 100 nM.
To `CCc1cc(-c2cc(NC(=O)Nc3cc(C(F)(F)F)cc(C(F)(F)F)c3)nn2C)cc2cnc(N[C@H]3CC[C@H](N)CC3)nc12` [Compound 21, 1-(5-(2-(((1r,4r)-4-aminocyclohexyl)amino)-8-ethylquinazolin-6-yl)-1-methyl-1H-pyrazol-3-yl)-3-(3,5-bis(trifluoromethyl)phenyl)urea] belongs 50 to 100 nM; to `CCc1cc(-c2cc(NC(=O)[C@@H](O)c3ccccc3)nn2C)cc2cnc(N[C@H]3CC[C@H](N)CC3)nc12` [Compound 15, (S)-N-(5-(2-(((1r,4r)-4-aminocyclohexyl)amino)-8-ethylquinazolin-6-yl)-1-methyl-1H-pyrazol-3-yl)-2-hydroxy-2-phenylacetamide], 5 to 50 nM.
Regarding `CCc1cc(-c2cc(CC(=O)Nc3cccc(C(F)(F)F)c3)nn2C)cc2cnc(N[C@H]3CC[C@H](N)CC3)nc12` [Compound 23, 2-(5-(2-(((1r,4r)-4-aminocyclohexyl)amino)-8-ethylquinazolin-6-yl)-1-methyl-1H-pyrazol-3-yl)-N-(3-(trifluoromethyl)phenyl)acetamide], the IC50 was greater than 100 nM.
To `CCc1cc(-c2cc(NC(=O)Cc3cc(C(F)(F)F)ccc3C(F)(F)F)nn2C)cc2cnc(N[C@H]3CC[C@@](C)(N)CC3)nc12` [Compound 50, N-(5-(2-(((1s,4s)-4-amino-4-methylcyclohexyl)amino)-8-ethylquinazolin-6-yl)-1-methyl-1H-pyrazol-3-yl)-2-(2,5-bis(trifluoromethyl)phenyl)acetamide] belongs 50 to 100 nM.
To `CCc1cc(-c2cc(NC(=O)Cc3cccc(C(F)(F)F)c3)nn2C)cc2cnc(N[C@H]3CC[C@H](N(C)CCOC)CC3)nc12` [Compound 46, N-(5-(8-ethyl-2-(((1r,4r)-4-((2-methoxyethyl)(methyl)amino)cyclohexyl)amino)quinazolin-6-yl)-1-methyl-1H-pyrazol-3-yl)-2-(3-(trifluoromethyl)phenyl)acetamide] belongs greater than 100 nM.
